The source of these data is ChEMBL document CHEMBL1151497, “Design, synthesis and antiproliferative activity of methyl 4-Iodo-1--D-ribofuranosyl-pyrazole-3-carboxylate and related compounds” (Bioorg Med Chem Lett, 1996).

What all share (type): functional, cell-based
One assay deals with HT-29. The assay is described as follows: Compound was tested for its effect on the proliferation of HT-29 human colon adenocarcinoma.
For a further assay, the system named is MOLT-4. The assay is described as follows: Compound was tested for its effect on the proliferation of MOLT-4 human lymphoblastic T-leukemia cell line.
The next assay deals with WIL2-NS. In words: Compound was tested for its effect on the proliferation of WIL-2-NS cell line. Particulars: Homo sapiens.
The next assay deals with ACHN. In words: Compound was tested for its effect on the proliferation of ACHN human kidney adenocarcinoma.
Another assay has as its system L1210. In words: Compound was tested for its effect on the proliferation of L1210 murine leukemia cell line. Particulars: Mus musculus.
In another assay the test system is CHO-K1. The assay is described as follows: Compound was tested for its effect on the proliferation of CHO-K1 Chinese hamster ovary cell line. Particulars: Cricetulus griseus.
The subject of a further assay is Raji. The assay is described as follows: Compound was tested for its effect on the proliferation of RAJI burkitt lymphoma cell line. Particulars: Homo sapiens.
Assay [1] deals with MT4. The assay is described as follows: Compound was tested for its effect on the proliferation of MT-4 cells expressing the TAT gene of HTLV-1. The settings on record: Homo sapiens.
Assay [2] has as its system CCRF-CEM. The assay is described as follows: Compound was tested for its effect on the proliferation of CCRF-CEM human lymphoblastic T-leukemia cell line.
For the next assay, the system named is HEL 299. In words: Compound was tested for its effect on the proliferation of […] human diploid embryonal lung cell line.
Another assay concerns CCRF-SB. In words: Compound was tested for its effect on the proliferation of CCRF-SB human lymphoblastic B-leukemia cell line.
The next assay has as its system C8166. The assay is described as follows: Compound was tested for its effect on the proliferation of C8166 cells expressing the TAT gene of HTLV-1. Particulars: Homo sapiens.
The subject of assay [3] is MT4. In words: Dose required to achieve 50% protection of MT-4 cells against the cytopathic effect of HIV-1. The settings on record: Homo sapiens. A general note: Cytopathic effects are the visible damage that an infection or toxin causes in cultured cells.
Assay [4] concerns CCRF-CEM. The assay is described as follows: Compound was tested for its effect on the proliferation of CCRF-CEM human lymphoblastic T-leukemia cell line.

Each structure is given as a SMILES string. Some results are limits rather than exact numbers.

Usually IC50 stands for the concentration that inhibits the measured activity by half. As for `COC(=O)c1csc([C@@H]2O[C@H](CO)[C@@H](O)[C@H]2O)n1`, the IC50 with HT-29, in the assay with MOLT-4, with WIL2-NS, with ACHN, in the assay on L1210 and in the assay on CHO-K1 was more than 300 µM in each case. The IC50 in the assay with Raji, with MT4 [1], in the assay with CCRF-CEM [2], in the assay on HEL 299 and in the assay with CCRF-SB was more than 300 µM throughout.
On to `COC(=O)c1ncn([C@@H]2O[C@H](CO)[C@@H](O)[C@H]2O)n1`, for which the IC50 with HT-29, with MOLT-4, with WIL2-NS, in the assay with ACHN, in the assay with L1210 and in the assay with CHO-K1 was more than 300 µM in each case. In addition, the half-maximal inhibitory concentration (IC50) in the assay with Raji, in the assay with MT4 [1], with CCRF-CEM [2], in the assay with HEL 299 and in the assay on CCRF-SB was more than 300 µM each time.
As for `Cc1noc(-c2nn([C@@H]3O[C@H](CO)[C@@H](O)[C@H]3O)cc2I)n1`, the concentration for half-maximal inhibition (IC50) is 4.8 µM in the assay with HT-29; 3 µM with MOLT-4; 3.5 µM with WIL2-NS; 6.2 µM with ACHN; 8.5 µM in the assay with CHO-K1; 2.3 µM with MT4 [1]. Also, the IC50 in the assay on CCRF-CEM [2] stood at 2.6 µM; with HEL 299 it was 7.9 µM; in the assay with CCRF-SB it was 2.8 µM.
Consider `CCCCOC(=O)c1nn([C@@H]2O[C@H](CO)[C@@H](O)[C@H]2O)cc1I`, for which the IC50 with HT-29 came out at 25 µM; in the assay with MOLT-4, 16 µM; in the assay with WIL2-NS, 23 µM; in the assay on C8166 it was 15 µM; in the assay on CHO-K1 it was 37 µM; with Raji it was 17 µM. Besides, the half-maximal inhibitory concentration (IC50) with MT4 [1] came to 25 µM; with CCRF-CEM [2], 19 µM; in the assay on HEL 299, 40 µM; in the assay with CCRF-SB, 21 µM.
As for `O=C(O)c1nn([C@@H]2O[C@H](CO)[C@@H](O)[C@H]2O)cc1I`, the IC50 in the assay with HT-29, in the assay on MOLT-4, with WIL2-NS, in the assay with C8166, in the assay with ACHN and in the assay with L1210 was more than 300 µM in each case. Besides, the half-maximal inhibitory concentration (IC50) in the assay with CHO-K1, in the assay on Raji, in the assay on MT4 [1], in the assay with CCRF-CEM [2], with HEL 299 and with CCRF-SB was more than 300 µM each time.
In the case of `COC(=O)c1nn([C@@H]2O[C@H](CO)[C@@H](O)[C@H]2O)cc1I`, the IC50 was 2.8 µM in the assay on HT-29; 0.9 µM with MOLT-4; 1.6 µM in the assay with WIL2-NS; 0.2 µM with C8166; 3.6 µM with ACHN; 2.4 µM with L1210. For the same compound, the IC50 stood at 7.9 µM in the assay with CHO-K1; 0.2 µM with Raji; 1.6 µM with MT4 [1]; 1.5 µM in the assay on CCRF-CEM [2]; 4 µM in the assay on HEL 299; 0.9 µM with CCRF-SB.
As usually defined, the EC50 is the concentration that produces a half-maximal response. A higher EC50 goes with a less potent agent. Consider `COC(=O)c1nn([C@@H]2O[C@H](CO)[C@@H](O)[C@H]2O)cc1I.Cc1cn([C@H]2C[C@H](N=[N+]=[N-])[C@@H](CO)O2)c(=O)[nH]c1=O`, for which the half-maximal effective concentration (EC50) in the assay with MT4 [3] was determined as 0.005 µM. This counts as single-digit nanomolar.
In turn, `COC(=O)c1nn([C@@H]2O[C@H](CO)[C@@H](O)[C@H]2O)cc1I.OC[C@@H]1CC[C@H](n2cnc3c(O)ncnc32)O1` displayed a half-maximal effective concentration (EC50) in the assay on MT4 [3] of 3 µM.
For the compound `C#Cc1cn([C@@H]2O[C@H](CO)[C@@H](O)[C@H]2O)nc1C(N)=O`, the IC50 is more than 300 µM in the assay on HT-29; more than 300 µM in the assay with MOLT-4; more than 300 µM with WIL2-NS; 22 µM in the assay on C8166; 287 µM with ACHN; more than 300 µM with L1210. Besides, the half-inhibitory concentration (IC50) in the assay with CHO-K1 is more than 300 µM; with Raji, more than 300 µM; in the assay on MT4 [1] it was more than 300 µM; with CCRF-CEM [2], more than 300 µM; with HEL 299 it was 235 µM; in the assay with CCRF-SB, more than 300 µM.
On to `NC(=O)c1nn([C@@H]2O[C@H](CO)[C@@H](O)[C@H]2O)cc1I`, for which the half-maximal inhibitory concentration (IC50) in the assay with HT-29 was more than 300 µM; in the assay on MOLT-4 it was 9.1 µM; with WIL2-NS it was more than 300 µM; in the assay with C8166, 4 µM; in the assay with ACHN it was more than 300 µM; in the assay with L1210 it was more than 300 µM. Also, the IC50 is more than 300 µM in the assay on CHO-K1; more than 300 µM in the assay with Raji; 2.1 µM in the assay with MT4 [1]; more than 300 µM with HEL 299; more than 300 µM in the assay with CCRF-SB; 2.4 µM in the assay on CCRF-CEM [4].
`COc1cccc2c1C(=O)c1c(O)c3c(c(O)c1C2=O)C[C@@](O)(C(=O)CO)C[C@@H]3O[C@H]1C[C@H](N)[C@H](O)[C@H](C)O1` [DOXORUBICIN]: the IC50 in the assay with HT-29 is 1.1 µM; in the assay on MOLT-4, 0.05 µM; in the assay on WIL2-NS it was 0.2 µM; in the assay with C8166, 0.05 µM; in the assay with ACHN, 0.7 µM; with L1210, 0.9 µM. The IC50 stood at 1.2 µM in the assay with CHO-K1; 0.1 µM with Raji; 0.05 µM with MT4 [1]; 0.08 µM in the assay on CCRF-CEM [2]; 1.7 µM in the assay with HEL 299; 0.05 µM in the assay with CCRF-SB.
Regarding `NC(=O)c1ncn([C@@H]2O[C@H](CO)[C@@H](O)[C@H]2O)n1` [RIBAVIRIN], the half-inhibitory concentration (IC50) is 5.7 µM with MOLT-4; more than 100 µM in the assay with WIL2-NS; more than 100 µM in the assay on C8166; more than 100 µM in the assay with ACHN; 16.6 µM in the assay with L1210; 50 µM in the assay with CHO-K1. Also, the concentration for half-maximal inhibition (IC50) in the assay on Raji was 56 µM; in the assay on MT4 [1], 23 µM; in the assay with CCRF-CEM [2] it was 19 µM; in the assay with HEL 299, 45 µM; in the assay with CCRF-SB, more than 100 µM.
As for `Cc1cn([C@H]2C[C@H](N=[N+]=[N-])[C@@H](CO)O2)c(=O)[nH]c1=O` [ZIDOVUDINE], the EC50 with MT4 [3] is 0.002 µM.
